In ChEMBL document CHEMBL4507257, “Data for DCP probe ABT-100” (2021):

Experiments:
[1] = target: Sigma non-opioid intracellular receptor 1 (Homo sapiens, UniProt Q99720); test: GPCRScan assay: inhibition of Sigma 1; set-up: radioligand conc. used [nm] 4.0 – 5.0, parental cells HEKT
[2] = target: D(2) dopamine receptor (Homo sapiens) (UniProt P14416); conditions: Compound concentration 10.0 uM
[3] = target: 5-hydroxytryptamine receptor 1B (Homo sapiens) (UniProt P28222); test: 5-HT1B Ligand binding assay; conditions: Compound concentration 10.0 uM
[4] = target: GABA-A receptor; anion channel (Rattus norvegicus) (UniProt O09028+P15431+P18506+P18508+P19969+P20236+P23574+P23576+P28471+P28473+P30191+P62813+P63079+P63138+Q91ZM7+Q9ES14); conditions: Compound concentration 10.0 uM
[5] = target: Beta-1 adrenergic receptor (Homo sapiens) (UniProt P08588); conditions: Compound concentration 10.0 uM
[6] = target: T1, 5-hydroxytryptamine receptor 1A (Homo sapiens) (UniProt P08908); test: 5-HT1A (h) Ligand binding assay; conditions: Compound concentration 10.0 uM
T1 sequence (whole entry): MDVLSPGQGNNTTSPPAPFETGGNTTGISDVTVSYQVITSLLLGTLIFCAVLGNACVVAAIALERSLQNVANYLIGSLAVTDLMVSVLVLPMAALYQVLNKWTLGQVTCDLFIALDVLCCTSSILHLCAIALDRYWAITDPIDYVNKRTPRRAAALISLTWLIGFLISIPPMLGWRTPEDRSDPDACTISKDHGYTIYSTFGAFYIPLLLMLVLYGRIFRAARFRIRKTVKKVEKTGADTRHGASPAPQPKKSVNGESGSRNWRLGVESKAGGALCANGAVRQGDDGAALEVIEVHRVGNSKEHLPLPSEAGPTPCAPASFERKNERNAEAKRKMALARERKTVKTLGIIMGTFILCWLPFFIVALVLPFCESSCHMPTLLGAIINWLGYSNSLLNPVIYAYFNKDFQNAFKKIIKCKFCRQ

[7] = target: G protein-coupled receptor kinase 3 (Homo sapiens, UniProt P35626); test: Inhibition of GRK3 at compound concentration of 10.0 uM using the ScanMax (DiscoverX)
[8] = target: P2X receptor (Rattus norvegicus) (UniProt P51579+P49653+P51578+Q64663+P47824+P51577+P49654); test: P2X Ligand binding assay; format: protein assay; conditions: Compound concentration 10.0 uM
[9] = target: D(2) dopamine receptor (Homo sapiens) (UniProt P14416); test: D2 (h) Ligand binding assay; conditions: Compound concentration 10.0 uM
Ephrin type-A receptor 1 = Ephrin type-A receptor 1 (Homo sapiens, UniProt P21709); test: Inhibition of EPHA1 at compound concentration of 10.0 uM using the ScanMax (DiscoverX)
[10] = test system: Glutamate receptor ionotropic NMDA, PCP site (Homo sapiens); test: PCP Ligand binding assay
[11] = target: Mu-type opioid receptor (Homo sapiens) (UniProt P35372); test: Mu (h) Ligand binding assay; conditions: Compound concentration 10.0 uM
[12] = target: Bombesin receptor (Homo sapiens) (UniProt P28336+P32247+P30550); test: Bombesin Ligand binding assay; format: protein assay; conditions: Compound concentration 10.0 uM
[13] = target: Galanin receptor type 1 (Homo sapiens) (UniProt P47211); test: GALI (h) Ligand binding assay; conditions: Compound concentration 10.0 uM
sodium channel (site 2) = sodium channel (site 2) (Homo sapiens, UniProt P35498+P35499+Q01118+Q14524+Q15858+Q99250+Q9NY46+Q9UI33+Q9UQD0+Q9Y5Y9); test: Na+ channel (site 2) Ligand binding assay; format: protein assay
[14] = target: Delta-type opioid receptor (Homo sapiens) (UniProt P41143); test: Delta (h) Ligand binding assay; conditions: Compound concentration 10.0 uM
[15] = target: B2 bradykinin receptor (Homo sapiens) (UniProt P30411); test: B2 (h) Ligand binding assay; conditions: Compound concentration 10.0 uM
[16] = target: Nociceptin receptor (Homo sapiens) (UniProt P41146); test: ORL-1 (h) Ligand binding assay; conditions: Compound concentration 10.0 uM
[17] = target: Thromboxane A2 receptor (Homo sapiens) (UniProt P21731); test: TXA2/PGH2 (h) Ligand binding assay; conditions: Compound concentration 10.0 uM
[18] = target: Translocator protein (Rattus norvegicus) (UniProt P16257); test: BZD (peripheral) Ligand binding assay; conditions: Compound concentration 10.0 uM
[19] = target: Melatonin receptor type 1A (Homo sapiens) (UniProt P48039); test: ML1 Ligand binding assay; conditions: Compound concentration 10.0 uM
[20] = GABA (non selective) Ligand binding assay; conditions: Compound concentration 10.0 uM
[21] = target: Neuromedin-K receptor (Homo sapiens) (UniProt P29371); test: NK3 (h) Ligand binding assay; conditions: Compound concentration 10.0 uM
[22] = target: Alpha-1D adrenergic receptor (Homo sapiens) (UniProt P25100); conditions: Compound concentration 10.0 uM
[23] = target: Tumor necrosis factor (Homo sapiens) (UniProt P01375); test: TNF-alpha (h) Ligand binding assay; conditions: Compound concentration 10.0 uM
[24] = target: Substance-K receptor (Homo sapiens) (UniProt P21452); test: NK2 (h) Ligand binding assay
[25] = target: Neurotensin receptor type 1 (Homo sapiens) (UniProt P30989); test: NT1 (h) Ligand binding assay; conditions: Compound concentration 10.0 uM
[26] = target: T2, Muscarinic acetylcholine receptor M4 (Homo sapiens) (UniProt P08173); test: M4 (h) Ligand binding assay; conditions: Compound concentration 10.0 uM
T2 sequence (whole entry): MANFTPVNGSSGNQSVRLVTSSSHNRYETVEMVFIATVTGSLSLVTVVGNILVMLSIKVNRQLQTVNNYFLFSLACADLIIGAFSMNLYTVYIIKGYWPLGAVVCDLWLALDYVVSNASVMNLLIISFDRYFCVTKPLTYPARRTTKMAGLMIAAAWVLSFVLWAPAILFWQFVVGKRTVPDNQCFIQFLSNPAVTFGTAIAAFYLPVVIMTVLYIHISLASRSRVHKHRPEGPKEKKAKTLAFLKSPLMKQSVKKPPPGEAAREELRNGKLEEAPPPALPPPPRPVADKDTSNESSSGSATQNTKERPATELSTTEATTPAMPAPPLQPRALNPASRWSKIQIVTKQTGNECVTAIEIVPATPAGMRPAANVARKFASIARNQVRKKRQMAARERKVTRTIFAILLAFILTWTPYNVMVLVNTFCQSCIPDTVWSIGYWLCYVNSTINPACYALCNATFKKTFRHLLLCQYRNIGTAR

[27] = target: Muscarinic acetylcholine receptor M2 (Homo sapiens) (UniProt P08172); conditions: Compound concentration 10.0 uM
[28] = target: C-X-C chemokine receptor type 1 (Homo sapiens) (UniProt P25024); test: IL-8A (h) (CXCR1) Ligand binding assay; conditions: Compound concentration 10.0 uM
[29] = target: Histamine H2 receptor (Homo sapiens) (UniProt P25021); test: H2 Ligand binding assay; conditions: Compound concentration 10.0 uM
[30] = target: Substance-P receptor (Homo sapiens) (UniProt P25103); test: NK1 (h) Ligand binding assay
Chain of Substance-P receptor (Homo sapiens) (P25103 whole entry): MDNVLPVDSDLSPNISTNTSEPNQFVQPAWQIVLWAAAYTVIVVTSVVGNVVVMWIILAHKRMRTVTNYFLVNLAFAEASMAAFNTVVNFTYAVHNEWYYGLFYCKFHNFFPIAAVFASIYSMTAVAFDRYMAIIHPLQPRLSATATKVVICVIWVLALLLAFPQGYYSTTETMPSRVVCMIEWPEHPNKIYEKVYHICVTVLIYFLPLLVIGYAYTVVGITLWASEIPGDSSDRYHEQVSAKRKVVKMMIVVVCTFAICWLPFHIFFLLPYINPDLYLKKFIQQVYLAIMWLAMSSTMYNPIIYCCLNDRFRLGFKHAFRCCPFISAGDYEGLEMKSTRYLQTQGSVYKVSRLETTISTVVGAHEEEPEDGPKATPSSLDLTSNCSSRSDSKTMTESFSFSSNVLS

Chain of Substance-K receptor (Homo sapiens) (P21452 whole entry): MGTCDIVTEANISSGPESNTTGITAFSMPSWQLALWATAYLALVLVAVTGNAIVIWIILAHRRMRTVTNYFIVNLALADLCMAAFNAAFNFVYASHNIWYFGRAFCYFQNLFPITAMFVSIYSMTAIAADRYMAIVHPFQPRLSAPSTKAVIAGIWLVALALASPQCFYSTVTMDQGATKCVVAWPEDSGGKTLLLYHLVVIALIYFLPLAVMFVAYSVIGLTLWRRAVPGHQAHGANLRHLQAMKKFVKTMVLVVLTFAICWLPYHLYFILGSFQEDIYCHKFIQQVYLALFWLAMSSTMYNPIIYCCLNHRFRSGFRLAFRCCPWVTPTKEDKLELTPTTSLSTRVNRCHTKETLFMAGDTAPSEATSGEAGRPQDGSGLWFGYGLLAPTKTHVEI
Chain of D(2) dopamine receptor (Homo sapiens) (P14416 whole entry): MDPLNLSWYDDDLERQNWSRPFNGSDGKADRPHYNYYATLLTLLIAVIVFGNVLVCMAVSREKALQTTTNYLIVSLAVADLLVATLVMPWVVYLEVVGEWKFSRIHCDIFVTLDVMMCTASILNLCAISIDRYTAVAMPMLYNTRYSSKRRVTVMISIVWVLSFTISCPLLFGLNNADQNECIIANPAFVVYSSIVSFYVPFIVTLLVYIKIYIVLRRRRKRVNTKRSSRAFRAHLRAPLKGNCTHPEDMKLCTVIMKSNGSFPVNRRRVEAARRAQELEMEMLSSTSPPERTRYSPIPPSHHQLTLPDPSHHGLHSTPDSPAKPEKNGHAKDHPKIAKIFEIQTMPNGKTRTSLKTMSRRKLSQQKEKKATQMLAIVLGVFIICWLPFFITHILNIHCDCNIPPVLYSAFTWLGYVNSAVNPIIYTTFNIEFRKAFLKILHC
Chain of Translocator protein (Rattus norvegicus) (P16257 whole entry, looked up): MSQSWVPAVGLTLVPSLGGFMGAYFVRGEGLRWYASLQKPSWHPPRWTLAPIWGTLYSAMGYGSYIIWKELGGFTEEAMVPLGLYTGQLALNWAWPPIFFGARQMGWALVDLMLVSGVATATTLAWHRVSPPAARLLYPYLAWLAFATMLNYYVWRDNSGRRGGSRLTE
Chain of 5-hydroxytryptamine receptor 1B (Homo sapiens) (P28222 whole entry): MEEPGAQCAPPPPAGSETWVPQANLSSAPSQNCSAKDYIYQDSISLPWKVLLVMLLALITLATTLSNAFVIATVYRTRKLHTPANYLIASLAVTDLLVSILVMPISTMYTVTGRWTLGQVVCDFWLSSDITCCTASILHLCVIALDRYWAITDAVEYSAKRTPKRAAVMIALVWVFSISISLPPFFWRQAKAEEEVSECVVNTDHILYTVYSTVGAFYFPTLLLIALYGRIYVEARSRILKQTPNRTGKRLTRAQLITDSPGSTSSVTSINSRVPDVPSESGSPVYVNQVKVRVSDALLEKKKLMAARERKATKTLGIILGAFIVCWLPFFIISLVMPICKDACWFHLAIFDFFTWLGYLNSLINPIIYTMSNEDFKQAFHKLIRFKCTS
Chain of Alpha-1D adrenergic receptor (Homo sapiens) (P25100 whole entry): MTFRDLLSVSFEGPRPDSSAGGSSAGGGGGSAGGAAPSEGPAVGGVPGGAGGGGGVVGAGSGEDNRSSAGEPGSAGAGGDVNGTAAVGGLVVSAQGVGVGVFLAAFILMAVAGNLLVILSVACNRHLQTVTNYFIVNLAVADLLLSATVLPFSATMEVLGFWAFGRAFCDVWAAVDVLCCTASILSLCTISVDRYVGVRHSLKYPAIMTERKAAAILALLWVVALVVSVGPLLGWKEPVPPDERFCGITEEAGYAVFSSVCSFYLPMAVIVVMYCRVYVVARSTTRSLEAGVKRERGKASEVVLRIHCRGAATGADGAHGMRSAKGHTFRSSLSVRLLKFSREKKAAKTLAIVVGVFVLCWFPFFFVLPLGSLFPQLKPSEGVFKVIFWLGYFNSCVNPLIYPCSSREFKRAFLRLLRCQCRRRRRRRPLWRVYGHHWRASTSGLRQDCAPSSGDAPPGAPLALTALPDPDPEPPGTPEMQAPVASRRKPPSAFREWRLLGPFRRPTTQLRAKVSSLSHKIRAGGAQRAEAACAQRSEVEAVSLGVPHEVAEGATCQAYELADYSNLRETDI
Chain of Neurotensin receptor type 1 (Homo sapiens) (P30989 whole entry): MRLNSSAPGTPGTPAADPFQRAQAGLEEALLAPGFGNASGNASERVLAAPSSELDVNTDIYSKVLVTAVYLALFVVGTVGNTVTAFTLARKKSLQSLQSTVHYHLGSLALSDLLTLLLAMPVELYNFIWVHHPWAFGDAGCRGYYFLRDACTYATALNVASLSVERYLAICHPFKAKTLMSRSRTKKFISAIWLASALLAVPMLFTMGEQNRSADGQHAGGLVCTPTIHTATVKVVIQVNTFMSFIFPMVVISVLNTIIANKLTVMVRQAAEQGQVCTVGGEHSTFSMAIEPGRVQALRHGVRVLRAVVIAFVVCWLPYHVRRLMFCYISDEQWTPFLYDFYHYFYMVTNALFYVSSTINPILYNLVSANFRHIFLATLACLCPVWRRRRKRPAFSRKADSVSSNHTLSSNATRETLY
Chain of Ephrin type-A receptor 1 (P21709 whole entry): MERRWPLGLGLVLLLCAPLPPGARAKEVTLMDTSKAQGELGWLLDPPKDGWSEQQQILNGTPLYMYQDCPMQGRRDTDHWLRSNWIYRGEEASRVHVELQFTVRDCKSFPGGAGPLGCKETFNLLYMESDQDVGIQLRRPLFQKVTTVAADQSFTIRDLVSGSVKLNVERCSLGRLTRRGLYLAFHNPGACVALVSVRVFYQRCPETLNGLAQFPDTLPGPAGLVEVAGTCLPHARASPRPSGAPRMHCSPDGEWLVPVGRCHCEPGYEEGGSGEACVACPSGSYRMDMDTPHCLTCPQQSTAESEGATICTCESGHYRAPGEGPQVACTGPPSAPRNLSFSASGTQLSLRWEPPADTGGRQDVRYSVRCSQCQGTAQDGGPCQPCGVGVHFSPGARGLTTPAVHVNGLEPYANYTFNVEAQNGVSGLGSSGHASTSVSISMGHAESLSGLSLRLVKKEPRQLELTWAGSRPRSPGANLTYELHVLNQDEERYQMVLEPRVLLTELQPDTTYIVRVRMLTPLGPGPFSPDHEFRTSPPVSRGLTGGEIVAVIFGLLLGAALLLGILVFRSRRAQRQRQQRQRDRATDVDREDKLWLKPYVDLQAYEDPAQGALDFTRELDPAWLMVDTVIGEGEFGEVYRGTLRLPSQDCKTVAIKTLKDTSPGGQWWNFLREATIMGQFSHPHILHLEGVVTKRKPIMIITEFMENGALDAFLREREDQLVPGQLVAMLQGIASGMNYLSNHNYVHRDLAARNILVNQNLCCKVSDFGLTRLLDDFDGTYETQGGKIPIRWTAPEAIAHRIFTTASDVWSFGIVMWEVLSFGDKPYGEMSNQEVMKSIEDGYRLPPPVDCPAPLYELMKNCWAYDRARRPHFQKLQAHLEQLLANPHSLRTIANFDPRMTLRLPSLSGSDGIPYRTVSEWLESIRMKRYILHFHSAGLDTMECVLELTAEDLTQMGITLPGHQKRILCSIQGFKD
Chain of Thromboxane A2 receptor (Homo sapiens) (P21731 whole entry): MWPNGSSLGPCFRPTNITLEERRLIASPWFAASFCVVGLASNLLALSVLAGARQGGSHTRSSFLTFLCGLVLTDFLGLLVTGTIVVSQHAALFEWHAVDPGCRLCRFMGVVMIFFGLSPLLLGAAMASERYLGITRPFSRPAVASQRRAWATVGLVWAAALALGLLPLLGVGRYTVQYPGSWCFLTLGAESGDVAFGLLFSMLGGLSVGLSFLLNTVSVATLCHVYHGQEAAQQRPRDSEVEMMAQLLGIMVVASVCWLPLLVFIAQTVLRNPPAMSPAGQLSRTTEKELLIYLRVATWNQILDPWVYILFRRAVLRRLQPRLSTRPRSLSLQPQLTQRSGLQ
Chain of Sigma non-opioid intracellular receptor 1 (Q99720 whole entry): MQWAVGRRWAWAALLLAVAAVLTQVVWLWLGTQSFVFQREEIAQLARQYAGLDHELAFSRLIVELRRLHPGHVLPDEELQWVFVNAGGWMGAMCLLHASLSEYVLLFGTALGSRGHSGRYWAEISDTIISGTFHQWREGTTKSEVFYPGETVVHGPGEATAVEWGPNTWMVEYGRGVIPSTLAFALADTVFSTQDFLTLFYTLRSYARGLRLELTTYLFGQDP
Chain of Beta-1 adrenergic receptor (Homo sapiens) (P08588 whole entry, looked up): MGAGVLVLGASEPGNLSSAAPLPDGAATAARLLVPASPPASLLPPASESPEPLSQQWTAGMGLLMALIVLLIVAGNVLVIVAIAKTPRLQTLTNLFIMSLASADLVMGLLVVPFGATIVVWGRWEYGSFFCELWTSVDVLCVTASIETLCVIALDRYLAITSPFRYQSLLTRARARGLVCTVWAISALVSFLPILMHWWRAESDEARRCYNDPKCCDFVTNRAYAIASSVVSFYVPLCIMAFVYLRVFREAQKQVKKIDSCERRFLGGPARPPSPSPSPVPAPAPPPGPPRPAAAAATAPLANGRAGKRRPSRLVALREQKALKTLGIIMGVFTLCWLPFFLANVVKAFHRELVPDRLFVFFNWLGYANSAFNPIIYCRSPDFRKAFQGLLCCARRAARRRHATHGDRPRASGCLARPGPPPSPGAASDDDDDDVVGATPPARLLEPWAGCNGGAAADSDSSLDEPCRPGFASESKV

Cn1cncc1[C@@](O)(COc1ccc(C#N)cc1-c1ccc(OC(F)(F)F)cc1)c1ccc(C#N)cc1 [A-108]
inactive: inhibition [2] 7.47%
0.0916 µM: Ki [1]

Cn1cncc1[C@](O)(COc1ccc(C#N)cc1-c1ccc(OC(F)(F)F)cc1)c1ccc(C#N)cc1 [ABT-100]
22% (not active): inhibition at 3 µM (sodium channel (site 2); compound concentration 3 uM)
active: inhibition ([10]; Compound concentration 1.0 uM) 75% | inhibition ([10]; Compound concentration 3.0 uM) 97% | inhibition ([10]; Compound concentration 10.0 uM) 100% | inhibition ([24]; Compound concentration 10.0 uM) 81% | inhibition [29] 53% | inhibition ([30]; Compound concentration 10.0 uM) 68%
> 10 µM (not active): Kd [7] | Kd (Ephrin type-A receptor 1)
10% (not active): inhibition at 1 µM (sodium channel (site 2); compound concentration 1 uM)
58%: inhibition at 10 µM (sodium channel (site 2); compound concentration 10 uM)
15% (not active): inhibition at 0.3 µM (sodium channel (site 2); compound concentration 0.3 uM)
inactive: inhibition [3] < 10% | inhibition [4] 6.85% | inhibition [5] 4.25% | inhibition [6] 18% | inhibition [8] < 10% | inhibition [9] 12% | inhibition ([10]; Compound concentration 0.3 uM) 14% | inhibition [11] 18% | inhibition [12] < 10% | inhibition [13] < 10% | inhibition [14] 14% | inhibition [15] < 10% | inhibition [16] < 10% | inhibition [17] 24% | inhibition [18] 36% | inhibition [19] 50% | inhibition [20] < 10% | inhibition [21] 45% | inhibition [22] -8.65% | inhibition [23] 24% | inhibition ([24]; Compound concentration 3.0 uM) 32% | inhibition [25] < 10% | inhibition [26] < 10% | inhibition [27] -1.19% | inhibition [28] < 10% | inhibition ([30]; Compound concentration 3.0 uM) 31%
